Test results taken from the supplement of paper PMC10307832.

How the values were obtained:
Test in all cases: relative viability (nuclei count vs DMSO), 5 days (fraction); higher = more cells survive
[1] = compound: C1COCCN1C2=NC(=NC3=C2OC4=C3C=CC=N4)C5=CC(=CC=C5)NC(=O)C6=CN=C(C=C6)N + CC1(C)CCC(c2ccc(Cl)cc2)=C(CN2CCN(c3ccc(C(=O)NS(=O)(=O)c4ccc(N[C@H](CCN5CCOCC5)CSc5ccccc5)c(S(=O)(=O)C(F)(F)F)c4)cc3)CC2)C1 [Navitoclax] (partner 0.5 µM)
Procedure, shortened: (§1)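 Nuclei were stained with Hoechst during a one-step fixation (final 0.05% Triton X-100, 1% formaldehyde, 1 ug/ml Hoechst) carried out 5 days after dosing, then counted on 4× images. The cells, lung cancer lines in 1536-well plates, had been dosed by pin tool the day after seeding with one drug alone or a fixed anchor-drug dose plus five library-drug doses (not always all listed) in √10 steps. Relative viability is the nuclei count in treated wells divided by that in vehicle wells, and each value is the median of duplicate plates.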

SGI-1776 + Bortezomib = compound: CN1CCC(CNc2ccc3ncc(-c4cccc(OC(F)(F)F)c4)n3n2)CC1 [SGI-1776] + CC(C)C[C@H](NC(=O)[C@H](Cc1ccccc1)NC(=O)c1cnccn1)B(O)O [Bortezomib] (partner 0.002 µM)
Procedure, shortened: as §1

[2] = compound: C1COCCN1C2=NC(=NC3=C2OC4=C3C=CC=N4)C5=CC(=CC=C5)NC(=O)C6=CN=C(C=C6)N + CS(=O)(=O)CCNCc1ccc(-c2ccc3ncnc(Nc4ccc(OCc5cccc(F)c5)c(Cl)c4)c3c2)o1 [Lapatinib] (partner 2 µM)
Procedure, shortened: as §1

SGI-1776 + Linsitinib = compound: CN1CCC(CNc2ccc3ncc(-c4cccc(OC(F)(F)F)c4)n3n2)CC1 [SGI-1776] + C[C@]1(O)C[C@@H](c2nc(-c3ccc4ccc(-c5ccccc5)nc4c3)c3c(N)nccn32)C1 [Linsitinib] (partner 1 µM)
Procedure, shortened: as §1

| Cell Line | relative viability ([1]; first compound 0.02 µM) | relative viability ([1]; first compound 0.06325 µM) | relative viability ([1]; first compound 0.2 µM) | relative viability ([1]; first compound 0.6325 µM) | relative viability ([1]; first compound 2 µM) | relative viability (SGI-1776 + Bortezomib; first compound 0.08 µM) | relative viability (SGI-1776 + Bortezomib; first compound 0.8 µM) | relative viability (SGI-1776 + Bortezomib; first compound 2.53 µM) | relative viability (SGI-1776 + Bortezomib; first compound 8 µM) | relative viability ([2]; first compound 0.02 µM) | relative viability ([2]; first compound 0.06325 µM) | relative viability ([2]; first compound 0.2 µM) | relative viability ([2]; first compound 0.6325 µM) | relative viability ([2]; first compound 2 µM) | relative viability (SGI-1776 + Linsitinib; first compound 0.08 µM) | relative viability (SGI-1776 + Linsitinib; first compound 0.8 µM) | relative viability (SGI-1776 + Linsitinib; first compound 2.53 µM) | relative viability (SGI-1776 + Linsitinib; first compound 8 µM) |
| --- | --- | --- | --- | --- | --- | --- | --- | --- | --- | --- | --- | --- | --- | --- | --- | --- | --- | --- |
| Calu-6 | 1.03 | 1.01 | 0.846 | 0.809 | 0.384 | 0.954 | 1.06 | 0.954 | 0.658 | 1.3 | 1.1 | 1.12 | 0.98 | 0.742 | 1.07 | 0.986 | 0.997 | 0.818 |
| NCI-H1734 | 0.838 | 0.99 | 0.87 | 0.821 | 0.441 | 0.903 | 1.11 | 0.88 | 0.739 | 1.18 | 1.09 | 0.935 | 0.902 | 0.558 | 0.919 | 0.895 | 0.935 | 0.749 |
| NCI-H1651 | 1.33 | 1.18 | 0.984 | 1.15 | 0.614 | 0.976 | 0.923 | 0.874 | 0.889 | 0.975 | 0.839 | 0.786 | 0.84 | 0.614 | 1.01 | 0.925 | 0.938 | 0.566 |
| NCI-H838 | 0.92 | 1.14 | 1.09 | 0.946 | 0.437 | 0.848 | 0.973 | 0.764 | 0.353 | 0.725 | 1.06 | 0.895 | 0.705 | 0.53 | 1.03 | 0.982 | 1.02 | 0.684 |
| NCI-H1915 | 0.757 | 0.838 | 0.824 | 0.836 | 0.873 | 1.01 | 0.985 | 0.932 | 0.935 | 0.955 | 1.04 | 1.03 | 1.01 | 0.443 | 1.11 | 1.12 | 1.13 | 1.1 |
| COR-L23 | 1.14 | 1.1 | 1.05 | 1.13 | 0.666 | 1.13 | 0.937 | 0.971 | 0.846 | 0.946 | 1.26 | 1.15 | 1.24 | 0.451 | 0.886 | 0.965 | 0.864 | 0.668 |
| HOP-62 | 1.05 | 1.32 | 1.27 | 1.01 | 0.735 | 0.862 | 0.914 | 0.74 | 0.632 | 0.945 | 1.42 | 1.06 | 0.925 | 0.531 | 0.823 | 0.877 | 1.23 | 1.04 |
| NCI-H1975 | 1.31 | 1.17 | 1.05 | 1.13 | 0.422 | 0.393 | 0.399 | 0.35 | 0.277 | 0.836 | 0.841 | 0.817 | 0.874 | 0.395 | 0.946 | 0.906 | 0.909 | 0.803 |
| BEN | 0.0527 | 0.058 | 0.0742 | 0.0452 | 0.0457 | 0.909 | 0.918 | 0.754 | 0.624 | 0.765 | 0.702 | 0.744 | 0.673 | 0.588 | 0.931 | 0.789 | 0.796 | 0.646 |
| EMC-BAC-2 | 1.21 | 1.28 | 1.26 | 1.12 | 0.984 | 1.06 | 1.01 | 1.1 | 1.04 | 0.932 | 0.931 | 0.94 | 0.897 | 0.733 | 0.868 | 0.846 | 0.838 | 0.737 |
| IA-LM |  | 0.751 | 0.705 | 0.656 | 0.374 | 0.844 | 0.736 | 0.918 | 0.877 | 0.848 | 0.67 | 0.621 | 0.588 | 0.276 | 0.732 | 0.603 | 0.593 | 0.692 |
| NCI-H1299 | 1.04 | 1.05 | 1.01 | 1.07 | 0.976 | 1.02 | 1.04 | 1.02 | 1.04 | 0.929 | 0.953 | 0.954 | 0.975 | 0.691 | 1.02 | 0.972 | 0.966 | 0.921 |
| LU99A | 0.779 | 0.842 | 0.786 | 0.587 | 0.277 | 1.3 | 1.15 | 1.53 | 1.03 | 1.1 | 1.04 | 0.92 | 0.64 | 0.35 | 0.573 | 0.54 | 0.545 | 0.432 |
| NCI-H2347 | 0.854 | 0.895 | 0.815 | 0.747 | 0.528 | 1.04 | 0.961 | 1.15 | 0.897 | 0.993 | 0.787 | 0.929 | 0.944 | 0.933 | 0.995 | 0.992 | 0.966 | 0.865 |
| NCI-H2009 | 1.19 | 1.2 | 1.12 | 1.05 | 0.954 | 1.03 | 1.02 | 0.991 | 0.733 | 0.933 | 0.944 | 0.889 | 0.89 | 0.792 | 1.22 | 1.16 | 1.3 | 1.09 |
| HCC-827 | 1.02 | 1.07 | 1.08 | 1.05 | 1.07 | 1.11 | 0.984 | 1.05 | 1.04 | 0.172 | 0.214 | 0.254 | 0.186 | 0.21 | 0.961 | 0.978 | 0.952 | 0.875 |
